How the values were obtained:
[1] = test system: bleomycin-induced idiopathic pulmonary fibrosis animal model; assay: Lung weight changes in bleomycin-induced idiopathic pulmonary fibrosis animal model; type: in vivo, C57BL/6 mice
Procedure: Specifically, 9-week-old C57BL/6 mice were purchased and allowed to adapt to their environment for one week before the experiment was conducted. […] Water was provided ad libitum, and sterilized feed was used, allowing free access to food. […] The control group was administered saline instead of bleomycin and received a vehicle (0.5% CMC (carboxymethylcellulose) solution) at a dose of 10 mL/kg orally twice daily. Specifically, the mice in each group were sacrificed upon completion of the experiment, and their lungs were excised. The weights of the excised lungs were then measured.

IL-1β = assay: Inhibition of IL-1β production in PMA-differentiated U937 macrophages induced with BzATP (ELISA); type: cell-based, human; conditions: for IC50: Homo sapiens, U-937, U937 macrophages, 12 h pretreatment, BzATP 300 μM 12 h
Procedure: (§1) To evaluate the anti-inflammatory efficacy of HY209 and TUDCA, the human monocytic cell line U937 was treated with PMA (phorbol 12-myristate 13-acetate) to induce differentiation into macrophages.
Specifically, the human monocytic cell line U937 was seeded at a density of 70,000 cells per well in a 96-well plate and cultured for 24 hours in RPMI1640 medium containing 50 nM PMA (phorbol 12-myristate 13-acetate) to induce differentiation into macrophages. The medium was then removed from each well, and HY209 or TUDCA was administered at varying concentrations (HY209: 1, 0.5, 0.25, 0.125, 0.0625, 0.0312, 0.0156, 0.0078 μM; TUDCA: 1000, 316, 100, 31.6, 10, 3.16, 0.316, 0.1, 0.0316, 0.01, 0.00316 μM) for 12 hours. Subsequently, BzATP (2′(3′)-O-(4-Benzoylbenzoyl)adenosine 5′-triphosphate) was added to each well to achieve a final concentration of 300 μM, and the cells were incubated for an additional 12 hours. The supernatants were then collected, and IL-1β levels were measured using an IL-1β ELISA kit (R&D Systems) according to the manufacturer's instructions (FIG. 7a).

TNF-α = assay: Inhibition of TNF-α production in PMA-differentiated U937 macrophages induced with Pam2CSK4 (ELISA); type: cell-based, human; conditions: for IC50: Homo sapiens, U-937, U937 macrophages, Pam2CSK4 50 ng/mL, 4 hours
Procedure: as §1
Additionally, the human monocytic cell line U937 was cultured at a density of 5×10^6 cells in a 100 mm dish containing RPMI1640 medium supplemented with 4 nM PMA (phorbol 12-myristate 13-acetate) for 5 hours to induce differentiation into macrophages. The differentiated macrophages were then seeded into a 96-well plate at a density of 50,000 cells per well and incubated for 24 hours to allow for rest. Following this, the medium was replaced with serum-free medium, and the cells were cultured for an additional 12 hours. The medium was then removed from each well, and the cells were treated with 50 ng/mL of Pam2CSK4 (Pam2CysSerLys4) along with HY209 or TUDCA at varying concentrations (HY209: 10, 4, 2, 1, 0.5, 0.25, 0.125, 0.0625, 0.03125 μM; TUDCA: 100, 50, 25, 12.5, 6.25, 3.125, 1.562, 0.76 μM) for 4 hours. The supernatants were then collected, and TNF-α levels were measured using a TNF-α ELISA kit (R&D Systems) according to the manufacturer's instructions (FIG. 7b).

[2] = test system: bleomycin-induced idiopathic pulmonary fibrosis animal model; assay: Histopathological evaluation of pulmonary fibrosis (Crossman's Trichrome, Matsuse modification of the Ashcroft score); type: in vivo, C57BL/6 mice
Procedure: Specifically, 9-week-old C57BL/6 mice were purchased and allowed to adapt to their environment for one week before the experiment was conducted. […] Water was provided ad libitum, and sterilized feed was used, allowing free access to food. […] The control group was administered saline instead of bleomycin and received a vehicle (0.5% CMC (carboxymethylcellulose) solution) at a dose of 10 mL/kg orally twice daily. Specifically, the mice in each group were sacrificed upon completion of the experiment, and their lungs were excised. The excised lungs were embedded in paraffin for histopathological evaluation and stained according to the Crossman's Trichrome method (Gray P. The Microtomist's Formulary and Guide. Published by Robert E. Krieger Publishing Co.). The histological changes in the lungs were assessed using the Matsuse modification of the Ashcroft score, as presented in Table 2 (Ashcroft H et al. J Clin Pathol (1988) 41:467-70; Matsuse T et al. Eur Respir J (1999) 13:71-77). [table]

α-SMA = assay: Immunohistochemical analysis of α-SMA area in lung tissue; type: in vivo, C57BL/6 mice
Procedure: (§2) Specifically, 9-week-old C57BL/6 mice were purchased and allowed to adapt to their environment for one week before the experiment was conducted. The experimental animals were maintained under conditions of 22±2° C., 55±10% relative humidity, and a 12-hour light/dark cycle. Water was provided ad libitum, and sterilized feed was used, allowing free access to food.
(§3) The pulmonary fibrosis group was orally administered a vehicle (0.5% CMC (carboxymethylcellulose) solution) at a dose of 10 mL/kg twice daily, while the experimental group was orally administered HY209 formulated in a 0.5% CMC solution to achieve final concentrations of 10, 30, and 60 mg/kg, also twice daily. The comparison group (Nintedanib administration group) was orally administered Nintedanib, formulated in a vehicle (0.1% Natrosol; Hydroxyethylcellulose solution) to achieve a final concentration of 60 mg/kg, twice daily. The pulmonary fibrosis group (Natrosol administration group) for comparison with the Nintedanib administration group received 10 mL/kg of 0.1% Natrosol solution orally twice daily. The control group was administered saline instead of bleomycin and received a vehicle (0.5% CMC (carboxymethylcellulose) solution) at a dose of 10 mL/kg orally twice daily.
Specifically, the mice in each group were sacrificed upon completion of the experiment, and their lungs were excised. The excised lungs were embedded in paraffin for histopathological evaluation, and sections were obtained and mounted onto slides. Subsequently, the expression distribution of the fibrosis-related factor α-SMA in the lung tissue was evaluated.
Immunohistochemical analysis of α-SMA was performed using polyclonal anti-α-SMA antibodies. Antigen retrieval was conducted using Target Retrieval Solution pH 6 (PT Link module, DAKO). […] The de novo accumulation level of α-SMA was evaluated using digital image analysis software (Visiopharm®). The results were expressed as the percentage (%) of the α-SMA area.

[3] = test system: human lung fibroblast cell line MRC5; assay: qPCR of fibrosis-related factors in TGF-β-treated MRC5 cells; type: cell-based; conditions: MRC5, TGF-β1 5 ng/mL, 48 hours
Procedure: Specifically, the human lung fibroblast cell line MRC5 was seeded at a density of 2×10^5 cells per well in a 6-well plate and incubated overnight to allow cell attachment. Subsequently, the medium was removed, and the cells were treated with TGF-β1 at a concentration of 5 ng/mL along with HY209 or TUDCA at concentrations of 0, 0.1, 1, and 10 μM, and cultured for 48 hours before collecting the cells. Following this, RNA was extracted from the cells using the RNeasy Mini Kit (QIAGEN), and cDNA was synthesized using Maxime™ RT PreMix (LiliF Diagnostic). qPCR measurements were conducted using Power SYBR™ Green PCR Master Mix (Thermo Scientific) in accordance with the manufacturer's instructions. Additionally, primers specific for Col1α1, α-SMA, and PAI-1 were utilized to assess their expression, and GAPDH was measured as the internal standard.

[4] = Body weight changes in bleomycin-induced idiopathic pulmonary fibrosis animal model; type: in vivo, C57BL/6 mice; conditions: HY209 administration group vs control group; oral BID Day 7-Day 21; measured daily
Procedure: as §2, §3
Specifically, the body weight of the mice in each group was measured daily throughout the course of the experiment.

[5] = 10 mg/kg oral BID Day 7-21, compared to the pulmonary fibrosis group
[6] = 60 mg/kg oral BID Day 7-21, compared to the pulmonary fibrosis group
[7] = 60 mg/kg oral BID Day 7-21, compared to the Natrosol administration group

Row | SMILES | IC50 (IL-1β) [µM] | IC50 (TNF-α) [µM] | Col1α1 expression ([3]; 0.1 μM) | PAI-1 expression ([3]; 0.1 μM) | α-SMA expression ([3]; 0.1 μM) | Col1α1 expression ([3]; 1 μM) | PAI-1 expression ([3]; 1 μM) | α-SMA expression ([3]; 1 μM) | PAI-1 expression ([3]; 10 μM) | α-SMA expression ([3]; 10 μM) | other results
1 | C[C@H](CCC(=O)NCCS(=O)(=O)O)[C@H]1CC[C@H]2[C@@H]3CC[C@@H]4C[C@H](O)CC[C@]4(C)[C@H]3C[C@H](O)[C@]12C [HY209, sodium taurodeoxycholate] | 0.044 | 0.36 | reduced the expression | inhibition | inhibition | reduced the expression | inhibition | inhibition | inhibition | inhibition | lung weight [1, 5]: statistically significantly decreased; lung weight [1, 6]: statistically significantly decreased; IC50 for IL-1β, times lower than that of TUDCA (IL-1β; HY209 vs TUDCA): 34 times; IC50 for TNF-α, times lower than that of TUDCA (TNF-α; HY209 vs TUDCA): 36 times; pulmonary fibrosis (Ashcroft score) [2, 5]: statistically significantly decreased; pulmonary fibrosis (Ashcroft score) [2, 6]: statistically significantly decreased; α-SMA area (α-SMA; 10 mg/kg oral BID Day 7-21, compared to the pulmonary fibrosis group and the Natrosol administration group): significantly decreased; α-SMA area (α-SMA; HY209 60 mg/kg oral BID Day 7-21, compared to the pulmonary fibrosis group and the Natrosol administration group): significantly decreased; Col1α1 expression ([3]; 10 μM): reduced the expression; body weight changes [4]: no significant differences
2 | COC(=O)c1ccc2c(c1)NC(=O)/C2=C(\Nc1ccc(N(C)C(=O)CN2CCN(C)CC2)cc1)c1ccccc1 [Nintedanib, reference compound] | – | – | – | – | – | – | – | – | – | – | lung weight [1, 7]: significant decrease; pulmonary fibrosis (Ashcroft score) [2, 7]: significant reduction; α-SMA area (α-SMA; Nintedanib 60 mg/kg oral BID Day 7-21, compared to both the pulmonary fibrosis group and the Natrosol administration group): significant reduction
3 | C[C@H](CCC(=O)NCCS(=O)(=O)O)[C@H]1CC[C@H]2[C@@H]3[C@@H](O)C[C@@H]4C[C@H](O)CC[C@]4(C)[C@H]3CC[C@]12C [TUDCA, tauroursodeoxycholic acid, reference compound] | 1.5 | 13.1 | increase in expression | did not demonstrate inhibitory effects | did not demonstrate inhibitory effects | increase in expression | did not demonstrate inhibitory effects | did not demonstrate inhibitory effects | inhibitory effects | inhibitory effects | –
